Assay results: patent US20250213547A1, “METHODS OF TREATING NEUROLOGICAL DISEASES” (priority 2022, published 2025)
Where two headings read alike, the source gives them in different places.

Legend:
[1] = for Avg. CFBL 24HC / Max. CFBL 24HC: Table 34, ELEKTRA patients, steady-state; for Avg. Ch. f. BL. 24HC / Max. Red. f. BL. 24HC: Table 34A, ELEKTRA (TAK-935-2002)
Excerpt: Other inclusion criteria were body weight ≥10 kg, currently taking a fixed dosage of 1 to 4 antiseizure medications, and failure to remain seizure free after trying at least two antiseizure medications. Convulsive seizures include focal to bilateral tonic-clonic with impaired awareness, hemi-clonic, simultaneous bilateral clonic, and generalized tonic-clonic seizures. Drop seizures can involve the entire body, trunk, or head which leads to falling. […] Approximately 126 patients ages ≥2 and ≤17 years were enrolled in the study. The study included two main phases, a 4-6 week screening and baseline period, and a 20-week treatment period. Patients received doses twice a day in a tablet formulation. The starting dose was adjusted according to the patient's body weight (Table 17).
During the first 8 weeks of treatment patient dosing was a titrated for individual optimization. The remaining 12-weeks of treatment consisted of a maintenance phase. The study began with treating patients ≥9 years of age for one month before treating younger patients. Blood was collected for PK analysis on the first dosage day within one hour of the morning dose, and 30 minutes, and 1, 2, 3, and 4 hours post-dose. Subsequent blood sampling took place before the morning dose and 30 minutes post-dose. Blood samples were obtained at scheduled times for determining PK profile and Tmax, which is the time Cmax was reached. A patient's seizure frequency was recorded before and during the trial to calculate percent change from baseline.
The PK model parameters can be used as a tool to estimate PK and drug exposure in an individual or a population (such as with ELEKTRA), as well as to calculate individualized dosing based on covariates. For example, optimal daily dosing can be calculated using the area under the concentration time curve and clearance values (dose=targetAUC24×CL). Blood sampling at steady-state was limited in the ELEKTRA study, thus some of the PK parameters shown in Table 32 for the ELEKTRA population were simulated by interpolation.
The dots represent the simulation and the numbers below the dot represent the simulated covariate value, while the values above the dots show the percent change from the reference level. The vertical line labeled “ref” depicts the reference level. […] The CV % refers to the coefficient of variation assuming a log-normal distribution, derived as […], where σ denotes the standard deviation of the log-transformed values.
The term AUC(0-tau) stands for AUC to the end of the dosing period. The covariate effects were analyzed using exposure parameters AUC, Cmax, and Ctrough.

plasma 24HC = test: Multiple rising dose study: pharmacodynamics, plasma 24HC; type: in vivo, human
Description: An 8 mL blood sample was collected to obtain plasma 24HC levels for PD analysis on day 1 and day 14 at 30 minutes pre-dose and at 30 minutes, and 1, 2, 4, 8, 12, 16, and 24 hours post-dose. The mean 24-hour area under the effect curve (AUEC24), presented as the percent change in 24HC from baseline, for doses 100, 300, and 400 mg were −46.8, −61.9, and −62.7, respectively. […] Example 7 below further describes the study's PD protocol and trial results, including safety (example 8).
Plasma 24HC collection and measurement were as described in example 5, with the exception that the 30—minute pre-dose sampling occurred on day 1, 7, 12, 13 and 14, and the 24-hour sampling occurred on day 1 and 14. Assay quality control measures, parameter and statistical analyses were performed as described in example 5. […] Subjects in the 300 mg BID and 600 mg QD cohorts discontinued treatment after day 10 due to some subjects experiencing adverse effects.

[2] = both, human, in vivo
Description: The study enrolled 48 subjects in the single rising dose study. Subjects were sorted into six cohorts and randomly assigned to treatment or placebo groups.
A prior study of soticlestat dosing in dogs guided the safety margin of minimal and maximal single dose selection for human subjects. An initial dosage of 10 mg provided a 44-fold safety margin relative to the maximum safe dosage in dogs. […] Each dose trial contained two placebo subjects. Ascending doses were tested in 2 sentinel subjects at a time to determine safety and tolerability before including the full cohort.
The mean values in table 6 with the superscript “a” were derived from n=3 subjects and values with superscript “b” were derived from n=4 subjects.

[3] = Multiple rising dose study: safety (TEAEs) in healthy subjects over 14 days; type: in vivo, human
Description: Subjects were monitored during the study and a full review was conducted after each rising dose. Safety data monitoring included vitals, physical and visual examinations, electrocardiogram, BMI, and clinical laboratory tests. […] Percentages are rounded to one decimal place. A subject with two or more different adverse events (AE) within the same levels of the MedDRA term and treatment is counted only once at that level using the most related or severe incident. A TEAE is defined as an AE or SAE that occurs or gets worse after receiving the first dose of study drug and within 30 days after the last dose of study drug.

[4] = Eq. Dose 100 mg (N = 70), Median
[5] = Eq. Dose 100 mg (N = 70), Range
[6] = Eq. Dose 200 mg (N = 68), Median
[7] = Eq. Dose 200 mg (N = 68), Range
[8] = Eq. Dose 300 mg (N = 56), Median
[9] = Eq. Dose 300 mg (N = 56), Range
[10] = Equiv. Dose 100 mg BID, N = 70, Mean
[11] = Equiv. Dose 100 mg BID, N = 70, Median
[12] = Equiv. Dose 100 mg BID, N = 70, Range
[13] = Equiv. Dose 200 mg BID, N = 68, Mean
[14] = Equiv. Dose 200 mg BID, N = 68, Median
[15] = Equiv. Dose 200 mg BID, N = 68, Range
[16] = Equiv. Dose 300 mg BID, N = 56, Mean
[17] = Equiv. Dose 300 mg BID, N = 56, Median
[18] = Equiv. Dose 300 mg BID, N = 56, Range

## O=C(c1cccnc1-c1ccncc1)N1CCC(O)(Cc2ccccc2)CC1 [soticlestat]
[1]; Eq. Dose 100 mg (N = 70), Mean
  Avg. CFBL 24HC: −69.4%
  Max. CFBL 24HC: −69.6%
[1]; [4]
  Avg. CFBL 24HC: −70.8%
  Max. CFBL 24HC: −71%
[1]; [5]
  Avg. CFBL 24HC: −86.9-−42.2%
  Max. CFBL 24HC: −87-−42.6%
[1]; Eq. Dose 200 mg (N = 68), Mean
  Avg. CFBL 24HC: −78.6%
  Max. CFBL 24HC: −78.7%
[1]; [6]
  Avg. CFBL 24HC: −80.7%
  Max. CFBL 24HC: −80.8%
[1]; [7]
  Avg. CFBL 24HC: −89.7-−54.7%
  Max. CFBL 24HC: −89.8-−55%
[1]; Eq. Dose 300 mg (N = 56), Mean
  Avg. CFBL 24HC: −82%
  Max. CFBL 24HC: −82.1%
[1]; [8]
  Avg. CFBL 24HC: −84%
  Max. CFBL 24HC: −84.1%
[1]; [9]
  Avg. CFBL 24HC: −90.9-−64.1%
  Max. CFBL 24HC: −90.9-−64.4%
[1]; [10]
  Avg. Ch. f. BL. 24HC: −67.38%
  Max. Red. f. BL. 24HC: −67.65%
[1]; [11]
  Avg. Ch. f. BL. 24HC: −70.08%
  Max. Red. f. BL. 24HC: −70.39%
[1]; [12]
  Avg. Ch. f. BL. 24HC: −86.70-−10.05%
  Max. Red. f. BL. 24HC: −86.77-−10.19%
[1]; [13]
  Avg. Ch. f. BL. 24HC: −76.77%
  Max. Red. f. BL. 24HC: −76.97%
[1]; [14]
  Avg. Ch. f. BL. 24HC: −80.21%
  Max. Red. f. BL. 24HC: −80.37%
[1]; [15]
  Avg. Ch. f. BL. 24HC: −89.03-−18.58%
  Max. Red. f. BL. 24HC: −89.07-−18.80%
[1]; [16]
  Avg. Ch. f. BL. 24HC: −79.95%
  Max. Red. f. BL. 24HC: −80.11%
[1]; [17]
  Avg. Ch. f. BL. 24HC: −82.50%
  Max. Red. f. BL. 24HC: −82.65%
[1]; [18]
  Avg. Ch. f. BL. 24HC: −89.98-−23.43%
  Max. Red. f. BL. 24HC: −90.00-−23.69%
Plasma 24HC; 100 mg QD day 1
  24HC AUEC24, mean, percent change from baseline (day −1): −8.15%
  24HC E24, mean, percent change from baseline (day −1): −20.9%
Plasma 24HC; 100 mg QD day 14
  24HC AUEC24, mean, percent change from baseline (day −1): −46.8%
  24HC E24, mean, percent change from baseline (day −1): −49.1%
Plasma 24HC; 300 mg BID day 1
  24HC AUEC24, mean, percent change from baseline (day −1): −6.90%
  24HC E24, mean, percent change from baseline (day −1): −10.5%
Plasma 24HC; 300 mg QD day 1
  24HC AUEC24, mean, percent change from baseline (day −1): −12.7%
  24HC E24, mean, percent change from baseline (day −1): −22.4%
Plasma 24HC; 300 mg QD day 14
  24HC AUEC24, mean, percent change from baseline (day −1): −61.9%
  24HC E24, mean, percent change from baseline (day −1): −63.8%
Plasma 24HC; 400 mg QD day 1
  24HC AUEC24, mean, percent change from baseline (day −1): −11.7%
  24HC E24, mean, percent change from baseline (day −1): −28.4%
Plasma 24HC; 400 mg QD day 14
  24HC AUEC24, mean, percent change from baseline (day −1): −62.7%
  24HC E24, mean, percent change from baseline (day −1): −65.6%
Plasma 24HC; 600 mg QD day 1
  24HC AUEC24, mean, percent change from baseline (day −1): −14.0%
  24HC E24, mean, percent change from baseline (day −1): −30.6%
[2]
  number of TEAEs reported: 29 TEAEs
[3]; 100 mg QD, n = 6
  Deaths, number of subjects (%): 0 subjects (%)
[3]; 300 mg BID, n = 6
  Deaths, number of subjects (%): 0 subjects (%)
[3]; 300 mg QD, n = 6
  Deaths, number of subjects (%): 0 subjects (%)
[3]; 400 mg QD, n = 6
  Deaths, number of subjects (%): 0 subjects (%)
  Mild TEAEs, number of subjects (%): 4 (66.7) subjects (%)
  Related TEAEs, number of subjects (%): 4 (66.7) subjects (%)
[3]; 600 mg QD, n = 6
  Deaths, number of subjects (%): 0 subjects (%)
[3]; both, human, in vivo, 14 days
  Mild TEAEs, number of subjects: 12 subjects
  Moderate TEAEs, number of subjects: 1 subjects
  TEAEs mild and transient: 91%
  TEAEs, number of subjects: 14 subjects
[3]; human, in vivo
  number of TEAEs reported: Forty-five
[3]; human, in vivo, 14 days
  Not related TEAEs, number of subjects: 1 subjects
  Related TEAEs, number of subjects: 13 subjects
  SAEs, number of subjects: 0 subjects
  Severe TEAEs, number of subjects: 1 subjects
  TEAEs leading to halt, number of subjects: 2 subjects
[3]; soticlestat total, n = 30
  Deaths, number of subjects: 0 subjects
